Laboratory results as given in paper PMC8625065 (Molecules, 2021).
Counter-ions that a name gives are not always drawn.

Columns and labels:
[1] = tested on: A549 (lung adenocarcinoma); assay: MTT proliferation assay, 72 h; format: cell-based; details: Homo sapiens, A549 cells
Experimental: (§1) The cell lines HeLa (cervical carcinoma), SW620 (colorectal adenocarcinoma, metastatic), A549 (lung adenocarcinoma), HepG2 (hepatocellular carcinoma) and HFF (human foreskin fibroblasts) were cultured as monolayers and maintained in Dulbecco’s modified Eagle medium (DMEM), supplemented with 10% fetal bovine serum (FBS), 2mM L-glutamine, 100 U/mL penicillin and 100 μg/mL streptomycin in a humidified atmosphere with 5% CO2 at 37 °C.
(§2) Cells were seeded onto 96-well microtiter plates at a seeding density of 3000 cells/well for carcinoma cell lines, and 5000 cells/well for normal human fibroblasts. The next day, cells were treated with test agents at five different concentrations (0.01–100 µM) and further incubated for 72 h. […] Following 72 h incubation, the MTT assay was performed and measured absorbances were transformed into percentage of cell growth as described previously. Results were obtained from three independent experiments.

[2] = tested on: HeLa (cervical carcinoma); assay: MTT proliferation assay, 72 h; format: cell-based, human; details: Homo sapiens; HeLa cells, MTT, 72 h
Experimental: as §1, §2

[3] = tested on: HepG2 (hepatocellular carcinoma); assay: MTT proliferation assay, 72 h; format: cell-based, human; details: Homo sapiens; HepG2 cells, MTT, 72 h
Experimental: as §1, §2

[4] = tested on: SW620 (colorectal adenocarcinoma, metastatic); assay: MTT proliferation assay, 72 h; format: cell-based, human; details: Homo sapiens, SW-620; SW620 cells, MTT, 72 h
Experimental: as §1, §2

[5] = tested on: HFF (human foreskin fibroblasts); assay: MTT proliferation assay, 72 h, non-tumor cells; format: cell-based; design: selectivity index (SI): reference not given here
Experimental: as §1, §2

SMILES	IC50 [1] [µM]	IC50 [2] [µM]	IC50 [3] [µM]	IC50 [4] [µM]	melting point [°C]	selectivity index (SI) ([5]; normal HFF fibroblasts versus tumor cells)	IC50 ([5]; Homo sapiens, Fibroblast, non-tumor HFF fibroblasts, MTT, 72 h) [µM]
c1cc(-n2cc(Cn3ccc4cc(C5=NCCN5)ccc43)nn2)ccc1C1=NCCN1 [Compound 7, 1-((1-(4-(Dihydro-1H-imidazol-2-yl)phenyl)-1H-1,2,3-triazol-4-yl)methyl)-5-(dihydro-1H-imidazol-2-yl)-1H-indole dihydrochloride]	> 100	> 100	69.1	49.8	–	–	–
N#Cc1ccc2c(ccn2Cc2cn(-c3ccc(/C(N)=N/O)cc3)nn2)c1 [Compound 16, 1-((1-(4-((Z)-N′-Hydroxycarbamimidoyl)phenyl)-1H-1,2,3-triazol-4-yl)methyl)-5-cyanoindole]	> 100	> 100	> 100	> 100	–	–	–
O=c1[nH]cc(F)c(=O)[nH]1 [Compound 5-FU, 5-Fluorouracil, reference compound]	2.8	8.81	–	0.08	–	–	–
N/C(=N\O)c1ccc(-n2cc(COc3cccc4cccnc34)nn2)cc1 [Compound 19, 8-((1-(4-((Z)-N′-Hydroxycarbamimidoyl)phenyl)-1H-1,2,3-triazol-4-yl)methoxy)quinoline]	76.7	64.5	> 100	72.7	230 to 232	–	–
N/C(=N\O)c1ccc(-n2cc(Cn3ccc4c(/C(N)=N/O)cccc43)nn2)cc1 [Compound 15, (Z)-N′-hydroxy-1-((1-(4-((Z)-N′-hydroxycarbamimidoyl)phenyl)-1H-1,2,3-triazol-4-yl)methyl)-1H-indole-4-carboximidamide]	> 100	> 100	> 100	> 100	229 to 232	–	–
N#Cc1cccc2c1ccn2Cc1cn(-c2ccc(/C(N)=N/O)cc2)nn1 [Compound 14, 1-((1-(4-((Z)-N′-Hydroxycarbamimidoyl)phenyl)-1H-1,2,3-triazol-4-yl)methyl)-4-cyanoindole]	> 100	65.8	> 100	> 100	–	–	–
N#Cc1ccc(NCc2cn(-c3ccc(/C(N)=N/O)cc3)nn2)cc1 [Compound 12, 4-(((1-(4-((Z)-N′-Hydroxycarbamimidoyl)phenyl)-1H-1,2,3-triazol-4-yl)methyl)amino)benzonitrile]	> 100	> 100	> 100	65.1	222 to 225	–	–
N/C(=N\O)c1ccc(-n2cc(COc3ccc4ccc(=O)oc4c3)nn2)cc1 [Compound 22, 7-((1-(4-((Z)-N′-Hydroxycarbamimidoyl)phenyl)-1H-1,2,3-triazol-4-yl)methoxy)coumarin]	> 100	87.4	91.4	> 100	232 to 235	–	–
Cl.Cl.c1cc(C2=NCCN2)ccc1NCc1cn(-c2ccc(C3=NCCN3)cc2)nn1 [Compound 4, 1-(4-(4,5-Dihydro-1H-imidazol-2-yl)-phenyl)-4-((4-(4,5-dihydro-1H-imidazol-2-yl)phenyl)aminomethyl)-1H-1,2,3-triazole dihydrochloride]	46.7	41.2	48.9	61.9	> 250	2	–
N/C(=N\O)c1ccc(-n2cc(COc3cc(=O)oc4ccccc34)nn2)cc1 [Compound 21, 4-((1-(4-((Z)-N′-Hydroxycarbamimidoyl)phenyl)-1H-1,2,3-triazol-4-yl)methoxy)coumarin]	> 100	99.7	> 100	> 100	235 to 237	–	–
c1cc(C2=NCCN2)c2ccn(Cc3cn(-c4ccc(C5=NCCN5)cc4)nn3)c2c1 (as salt: hydrochloride) [Compound 6, 1-((1-(4-(Dihydro-1H-imidazol-2-yl)phenyl)-1H-1,2,3-triazol-4-yl)methyl)-4-(dihydro-1H-imidazol-2-yl)-1H-indole dihydrochloride]	–	–	–	–	> 250	–	–
N/C(=N\O)c1ccc(-n2cc(CNc3cccc4cccnc34)nn2)cc1 [Compound 18, 8-(((1-(4-((Z)-N′-Hydroxycarbamimidoyl)phenyl)-1H-1,2,3-triazol-4-yl)methyl)amino)quinoline]	6.52	25.6	> 100	–	–	–	9.81
c1cc(-n2cc(Cn3ccc4cc(C5=NCCN5)ccc43)nn2)ccc1C1=NCCN1 (as salt: hydrochloride) [Compound 7, 1-((1-(4-(Dihydro-1H-imidazol-2-yl)phenyl)-1H-1,2,3-triazol-4-yl)methyl)-5-(dihydro-1H-imidazol-2-yl)-1H-indole dihydrochloride]	–	–	–	–	228 to 231	–	–
N/C(=N\O)c1ccc(-n2cc(Cn3ccc4cc(/C(N)=N/O)ccc43)nn2)cc1 [Compound 17, (Z)-N′-hydroxy-1-((1-(4-((Z)-N′-hydroxycarbamimidoyl)phenyl)-1H-1,2,3-triazol-4-yl)methyl)-indole-5-carboximidamide]	> 100	60.7	> 100	> 100	232 to 234	–	–
N/C(=N\O)c1ccc(OCc2cn(-c3ccc(/C(N)=N/O)cc3)nn2)cc1 [Compound 13, (Z)-N′-Hydroxy-4-(4-((4-((Z)-N′-hydroxycarbamimidoyl)phenoxy)methyl)-1H-1,2,3-triazol-1-yl)benzimidamide]	> 100	> 100	> 100	> 100	218 to 221	–	–
